Data as given in paper PMC10350923, “In Vitro and In Vivo Biological Activities of Dipicolinate Oxovanadium(IV) Complexes” (Journal of Medicinal Chemistry, 2023).
Values joined by “and” are separate entries in the source; they are usually repeats but may differ in a detail not shown here. Equal values may be shown once. Read-outs that look alike come from different tables or passages of the source.

Tests used:
[1] = system: HCT116-DoxR (doxorubicin-resistant colorectal carcinoma cell line); assay: MTS cell viability assay, HCT116-DoxR;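 note: MTS colorimetric quantification of viable cells, with loss of viability tracked as complex concentration rises, in DMEM-grown HCT116-DoxR, a line whose resistance involves P-glycoprotein efflux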
Description: (§7) To assess the cytotoxicity of vanadium complexes in tumor and healthy cells, the MTS assay, a colorimetric method that allows the quantification of viable cells present in solution,[71] was performed.
Cell culture and maintenance
(§8) The A2780 cancer cell line (ovarian carcinoma) was purchased from Sigma-Aldrich (Madrid, Spain)
(§9) while HCT116 cancer cell line (colorectal carcinoma) and the normal human primary dermal
(§10) fibroblasts were obtained from American Type Culture Collection (ATCC®, Manassas, VA, USA).
(§11) HCT116 Dox-resistant cell line (HCT116-DoxR) was derived from HCT116 parental cells, as
(§12) All cells were cultured in Dulbecco’s modified Eagle medium (DMEM), except the A2780 cell line
(§13) which was cultured in RPMI (Roswell Park Memorial Institute) medium. Both media were
(§14) supplemented with 10% (v/v) fetal bovine serum (FBS) and 1% (v/v) of a Pen/Strep
(§15) (Penicillin/Streptomycin) solution. HCT116-DoxR cell medium was additionally supplemented with
(§16) All media and supplements were purchased from Thermo Fischer Scientific (Waltham, Massachusetts, USA).
(§17) (SANYO CO2 Incubator, Electric Biomedical Co., Osaka, Japan).
(§18) HCT116, HCT116-DoxR and A2780 cancer cell lines and normal human primary fibroblasts were
(§19) used in cellular viability assays. Cells were seeded in a density of 0.75×10^5 cells/mL into 96 well-
(§20) After the 24 h of incubation, complexes were
(§21) weight and immediately solubilized in 100% (v/v) DMSO and then, diluted for the final concentration
(§22) with cell culture medium. The medium in each 96 well-plates will be replaced by fresh medium
(§23) containing each vanadium complex (concentrations ranging from 0.01 µM to 50 µM). Culture medium
(§24) with 0.1% (v/v) DMSO and 0.4 µM Dox were used as negative and positive controls, respectively.

[2] = system: normal human primary dermal fibroblasts; assay: MTS cell viability assay, fibroblasts
Description: as §7
Cell culture and maintenance
as §8, §9, §10, §11, §12, §13, §14, §15, §16, §17, §18, §19, §20, §21, §22, §23, §24

[3] = system: HCT116 (colorectal carcinoma cell line); assay: MTS cell viability assay, HCT116; type: cell-based, human; details: 48 h of exposure, mean ± SEM
[4] = system: A2780 (ovarian carcinoma cell line); assay: MTS cell viability assay, A2780; type: cell-based, human; details: 48 h of exposure, mean ± SEM
[5] = n-octanol/PBS buffer partition coefficient, shake-flask, UV-vis; details: room temperature
Description: The lipophilicity of V(IV) complexes was investigated using the classical shake-flash method at room temperature in the two-phase system of immiscible solvents n-octanol/PBS buffer.[69],[70] The transfer of V(IV) compounds from the aqueous environment to the organic phase was monitored by UV–vis spectroscopy.
The n-octanol/PBS buffer partition coefficients (logP) were determined by shake-flash approach, and
the transfer of V(IV) compounds from the aqueous environment to the organic phase was monitored
by UV-Vis spectroscopy5,6. Solutions of 1–10 of concentrations in the range 10-100 M were prepared
in PBS buffer saturated with n-octanol from the freshly-prepared stock solution in DMSO (5mM or 50
mM), and their UV-Vis spectra were recorded. The solution of 1–10 in aqueous buffer (3 ml) were
mixed with n-octanol saturated with pH 7.4 aqueous buffer (3 ml), and the obtained mixtures were
stirred in a mechanical shaker for 30 min. The mixtures were allowed to stand at room temperature for
24 h, and after this time, the aqueous phases were separated, and the concentrations of 1–10 were
determined by measuring their UV-Vis spectra. For each complex, the highest energy absorption band was taken into consideration to determine the sample concentration.

[6] = system: HCT116-DoxR cells; assay: Alexa Fluor 488-annexin V/PI apoptosis assay, flow cytometry; type: cell-based, human; details: 48 h
[7] = system: caspase-8; assay: Caspase-8 activity, IETD-pNA cleavage; type: cell-based, human; details: HCT116-DoxR, 48 h; complexes at IC50, cisplatin 5 μM
Description: Since caspase-8 is an initiator caspase of the extrinsic apoptotic pathway, its activity was evaluated after HCT116-DoxR cells were exposed to complexes 5 and 8 (Figure 8).
The chromogenic substrate IETD-pNA, which results from the conjugation between the peptide IETD (Ile-Glu-Thr-Asp) and the chromophore p-nitroanilide (pNA), is cleaved by caspase-8 and releases pNA, which can be detected by measuring absorbance at 400 nm.[99] Therefore, if complexes 5 and 8 induce cell death through the extrinsic apoptotic pathway, there is an increase in absorbance at 400 nm compared to the control sample, corresponding to an increase in caspase-8 activity that is translated into the cleavage of the substrate IETD-pNA (Figure 8).
Antibody; Cell Signalling Technology, USA).
Assay Kit (Abnova Corporation, Walnut, CA, USA).
vanadium complexes at its IC50 concentrations.
Cells were then incubated
Flow Cytometer (Life Technologies, Carlsbad, USA).
HCT116-DoxR cell line was cultivated

[8] = system: HCT116-DoxR cells; assay: Cell cycle progression, PI, flow cytometry; details: HCT116-DoxR, 3, 9, 24, 32 h; complexes at IC50, cisplatin 5 μM, Dox 6 μM
[9] = system: HCT116-DoxR cells; assay: Autophagy induction, Green Detection Reagent, flow cytometry; details: 48 h, complexes at IC50, cisplatin 5 μM, Dox 6 μM
[10] = system: HCT116-DoxR spheroids; assay: MTS assay in 3D spheroids; type: cell-based, human; details: HCT116-DoxR spheroids 6- to 8-day-old, 48 h
[11] = system: HCT116-DoxR cells; assay: Cell internalization by ICP-AES; type: cell-based, human; details: 3 h exposure to 10x IC50, ICP-AES
[12] = system: HCT116-DoxR cells; assay: ROS production, H2DCF-DA, flow cytometry; type: cell-based, human; details: 48 h, IC50
Description: Thus, the level of ROS present in HCT116-DoxR cells after their exposure to vanadium complexes was quantified (Figure 10). The probe 2′,7′-dichlorohydrofluorescein diacetate (H2DCF-DA), which diffuses into cells and is deacetylated by cellular esterases resulting in a nonfluorescent compound, was used. Inside the cell, this molecule is oxidized by ROS and then originates the fluorescent molecule 2′,7′-dichlorofluorescein (DCF) that can be detected by flow cytometry.[103]
(§1) finishing the 48 h period.
(§2) Attune® Cytometric software.
(§3) Butyl hydroperoxide) were used as controls.
(§4) Cells were later analysed
(§5) (double thymidine block).
(§6) After this, the pellet was resuspended in
Control solutions were also prepared, namely a […]

[13] = molecular target: T1, BSA (bovine serum albumin) (Bos taurus, UniProt P02769); assay: BSA binding, UV-vis and fluorescence spectroscopy
T1 construct: I (1–195), II (196–383), and III (384–583)
T1 sequence (P02769 25-607): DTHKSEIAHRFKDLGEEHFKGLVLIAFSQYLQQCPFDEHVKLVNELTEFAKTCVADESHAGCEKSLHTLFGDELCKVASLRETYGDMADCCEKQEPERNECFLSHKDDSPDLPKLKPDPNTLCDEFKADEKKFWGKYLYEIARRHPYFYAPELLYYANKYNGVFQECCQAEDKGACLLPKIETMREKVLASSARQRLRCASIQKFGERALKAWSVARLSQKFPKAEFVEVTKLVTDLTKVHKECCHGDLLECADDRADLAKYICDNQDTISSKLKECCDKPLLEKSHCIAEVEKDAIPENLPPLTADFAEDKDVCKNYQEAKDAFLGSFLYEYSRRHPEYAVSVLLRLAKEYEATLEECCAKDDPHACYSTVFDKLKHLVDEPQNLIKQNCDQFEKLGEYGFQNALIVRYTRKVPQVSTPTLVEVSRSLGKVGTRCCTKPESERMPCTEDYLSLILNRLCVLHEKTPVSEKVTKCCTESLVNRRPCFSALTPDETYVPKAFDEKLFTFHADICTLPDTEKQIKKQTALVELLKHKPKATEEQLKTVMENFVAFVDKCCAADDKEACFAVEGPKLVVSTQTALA

[14] = system: fibroblasts; assay: Cell migration (wound healing) assay; type: cell-based, human; details: 24 h, IC50
Description: In the wound healing assay, a region without cells is generated, being then exposed to the compounds, and the cell migration is analyzed after 24 h, to determine the cells’ ability to proliferate and refill the gap previously formed (Figure 14).[116]
as §1, §2, §3, §4, §5, §6
Control solutions were also prepared, namely a
DMSO only. […] The UV-Vis spectra were […]

[15] = system: chick chorioallantoic membrane; assay: Ex ovo chick chorioallantoic membrane (CAM) assay, angiogenesis; type: in vivo, chicken; details: chick embryo CAM, IC50, 48 h
Description: The ex ovo CAM assay was used to evaluate the role of vanadium complexes in the process of angiogenesis. CAM is a chicken extraembryonic membrane and is often used to study the process of angiogenesis in vivo as it has a high density of blood and lymphatic vessels.[120] This assay consists of analyzing certain vascularized areas of the chorioallantoic membrane of a chicken embryo. Initially, o-rings are placed covering those membrane vascularized areas being then exposed to the complexes. Pictures are then taken at 0, 24, and 48 h after exposure to the complexes and the number of blood vessels present at each hour are counted and compared. The results can be observed in Figure 15.
Ex-ovo Chick Chorioallantoic Membrane (CAM) assay
The ex-ovo chorioallantoic membrane (CAM) assay was performed in order to evaluate the angiogenic potential of vanadium complexes, as already described in literature11–13. Firstly, chicken embryos were […]
concentration of each complex dissolved in PBS 1x was placed in the centre of O-rings. Beside each complex, DMSO 0.1% (v/v) was used as a control and complex distribution in chicken embryos was always performed in a different order. The embryos were incubated for 48 h at 37 °C and images were […]
Newly formed blood vessels were later manually counted, via ImageJ software.
The ex-ovo CAM assay fulfils the Directive 2010/63/ EU of the European Parliament for protection of animal models for scientific purposes.
All data are presented as Mean ± SEM from at least two independent experiments unless otherwise specified. One-way ANOVA or Student’s t-test were used to determine statistical significance (p < 0.05) using the GraphPad Prism 8 software (GraphPad Software, San Diego, CA, USA).

[16] = Stability and solubility in RPMI culture medium, UV-vis; type: physicochemical; details: UV-vis at 0, 24, 48 h
[17] = Homo sapiens, 48 h, read-out: IC50 HCT116-DoxR (ligands)
[18] = Homo sapiens, Fibroblast, 48 h, read-out: IC50 fibroblasts (ligands)
[19] = read-out: IC50 HCT116-DoxR, 48 h of exposure, MTS, mean ± SEM
[20] = read-out: IC50 fibroblasts, 48 h of exposure, MTS, mean ± SEM
[21] = complexes at IC50, cisplatin 5 μM, Dox 6 μM
[22] = read-out: IC50 HCT116-DoxR (ligands), free ligands, 48 h of exposure, mean ± SEM
[23] = read-out: IC50 fibroblasts (ligands), free ligands, 48 h of exposure, mean ± SEM

| SMILES | IC50 [1, 17] | IC50 [2, 18] | IC50 [3] | IC50 [4] | IC50 [1, 19] | IC50 [2, 20] | log P [5] | also measured |
| --- | --- | --- | --- | --- | --- | --- | --- | --- |
| c1ccc(-c2ccnc3c2ccc2c(-c4ccccc4)ccnc23)cc1 [4,7-Ph2-phen, 4,7-diphenyl-1,10-phenanthroline] | 0.3 ± 0.02 µM | 4.4 ± 0.13 µM |  |  |  |  |  |  |
| Clc1ccnc2c1ccc1c(Cl)ccnc12 [4,7-Cl2-phen, 4,7-dichloro-1,10-phenanthroline] | 16.4 ± 0.01 µM | 17.5 ± 0.07 µM |  |  |  |  |  |  |
| COc1ccnc2c1ccc1c(OC)ccnc12 [4,7-(CH3O)2-phen, 4,7-dimethoxy-1,10-phenanthroline] | 0.3 ± 0.05 µM | 10 ± 0.01 µM |  |  |  |  |  |  |
| O=C1[O][V](=[O])[O]C(=O)c2cccc1n2.c1ccc(-c2nc3ccccc3[nH]2)nc1 [complex 2, [VO(dipic)(pybim)]] |  |  | > 50 µM | 6.7 ± 0.02 µM | 31.4 ± 0.03 µM | 15.7 ± 0.04 µM | –0.10 |  |
| c1ccc(-c2ccccn2)nc1 [Bipy, 2,2′-bipyridine] | > 50 µM | > 50 µM |  |  |  |  |  |  |
| Clc1ccnc2c1ccc1c(Cl)ccnc12.O=C1[O][V](=[O])[O]C(=O)c2cccc1n2 [complex 4, [VO(dipic)(4,7-Cl2-phen)]] |  |  | 8.8 ± 0.02 µM | 2.2 ± 0.02 µM | ~9 µM and 9 µM | 9.2 ± 0.01 µM | 0.44 |  |
| N.N.[Cl][Pt][Cl] [cisplatin, reference compound] |  |  | 15.6 ± 5.3 µM | 1.9 ± 0.2 µM |  |  |  | early apoptosis [6, 21]: 31.9 ± 4.6%; late apoptosis [6, 21]: 10.0 ± 4.2%; necrosis [6, 21]: 1.6 ± 0.7%; percentage of apoptosis (total) [6, 21]: ~40%; caspase-8 activity vs 0.1% DMSO [7]: higher level of caspase-8; cell cycle arrest / cytostatic effect [8]: cytostatic effect; increase of autophagic vesicles over the control [9]: ~2.3 fold |
| O=C1[O][V](=[O])[O]C(=O)c2cccc1n2.c1ccc(-c2ccccn2)nc1 [complex 9, [VO(dipic)(bipy)]] |  |  | 44 ± 0.04 µM | 4.8 ± 0.02 µM | 39.2 ± 0.09 µM | 16.2 ± 0.04 µM | 0.13 |  |
| O=C1[O][V](=[O])[O]C(=O)c2cccc1n2.c1ccc(-c2ncc[nH]2)nc1 [complex 1, [VO(dipic)(pyim)]] |  |  | > 50 µM | 15 ± 0.02 µM | > 50 µM | 20.2 ± 0.04 µM | –0.04 |  |
| c1ccc(-c2nc3ccccc3[nH]2)nc1 [Pybim, 2-(2-pyridyl)benzimidazole] | 27.1 ± 0.04 µM | ~50 µM |  |  |  |  |  |  |
| O=C1C(=O)c2cccnc2-c2ncccc21.O=C1[O][V](=[O])[O]C(=O)c2cccc1n2 [complex 3, [VO(dipic)(phendione)]] |  |  |  | 0.2 ± 0.02 µM | 1.3 ± 0.07 µM | 0.7 ± 0.02 µM | –0.16 |  |
| O=C1[O][V](=[O])[O]C(=O)c2cccc1n2.c1cnc2c(c1)ccc1cccnc12 [complex 8, [VO(dipic)(phen)]] |  |  | 3.7 ± 0.01 µM | 2.1 ± 0.03 µM | 1.3 ± 0.04 µM | 8.6 ± 0.02 µM | 0.40 | IC50 [10]: 11.7 ± 0.62 µM; Concentration in cells [11]: 6.705 µM; increase of percentage of apoptotic cells normalized to DMSO ([6]; IC50): 1.7 fold; early apoptosis [6, 21]: 44.8 ± 6.2%; late apoptosis [6, 21]: 4.5 ± 2.1%; necrosis [6, 21]: 0.9 ± 0.6%; percentage of apoptosis (total) [6, 21]: about 50%; viable cells [6, 21]: 49.8 ± 6.0%; caspase-8 activity vs 0.1% DMSO [7]: higher level of caspase-8; ROS production, increase over the DMSO control [12]: 2.4 fold; BSA fluorescence with increasing complex concentrations ([13]; BSA 20 μM, complexes 10-100 μM, pH 7.0, 24 h, 37 °C): high decrease in BSA fluorescence; interaction with BSA protein ([13]; UV-vis and fluorescence spectroscopy): capable of interacting; cell migration (wound remission) [14]: do not promote cell migration; anti-/pro-angiogenic potential, newly formed blood vessels, 48 h [15]: no anti-/pro-angiogenic potential; stability in RPMI culture medium [16]: no spectral changes over time; IC50 ([1]; read-out: IC50 2D, HCT116-DoxR 2D culture, 48 h): 1.3 ± 0.04 µM; increase of autophagic vesicles over the control [9]: ~2.3 fold |
| O=C1C(=O)c2cccnc2-c2ncccc21 [phendione] | 0.7 ± 0.01 µM | 1.8 ± 0.05 µM |  |  |  |  |  |  |
| c1ccc(-c2ncc[nH]2)nc1 [Pyim, 2-(1H-imidazol-2-yl)pyridine] | > 50 µM | > 50 µM |  |  |  |  |  |  |
| O=C1[O][V](=[O])[O]C(=O)c2cccc1n2.c1ccc2c(c1)Sc1ccccc1N2c1ccnc2c1ccc1c(N3c4ccccc4Sc4ccccc43)ccnc12 [complex 7, [VO(dipic)(4,7-(phtiaz)2-phen)]] |  |  | > 50 µM | 3.1 ± 0.03 µM | > 50 µM | 21.7 ± 0.08 µM | 0.62 |  |
| O=C1[O][V](=[O])[O]C(=O)c2cccc1n2.c1c[nH]cn1.c1c[nH]cn1 [complex 10, [VO(dipic)(im)2]] |  |  | > 50 µM | 14.7 ± 0.02 µM | > 50 µM | 20.1 ± 0.05 µM | –1.28 |  |
| O=C(O)c1cccc(C(=O)O)n1 [Dipic, dipicolinate] |  |  |  |  |  |  |  | IC50 [1, 22]: > 50 µM; IC50 [2, 23]: > 50 µM |
| c1ccc2c(c1)Sc1ccccc1N2c1ccnc2c1ccc1c(N3c4ccccc4Sc4ccccc43)ccnc12 [4,7-(phtiaz)2-phen, 4,7-phenothiazine-1,10-phenanthroline] |  |  |  |  |  |  |  | IC50 [1, 22]: > 50 µM; IC50 [2, 23]: > 50 µM |
| CC(C)(C)OO [TBHP, tert-butyl hydroperoxide, reference compound] |  |  |  |  |  |  |  | IC50 ([1]; Homo sapiens, 48 h, read-out: IC50 HCT116-DoxR): 42 µM |
| c1cnc2c(c1)ccc1cccnc12 [Phen, 1,10-phenanthroline] | 1.6 ± 0.03 µM | > 50 µM |  |  |  |  |  |  |
